Data as given in publication PMC6952366 (Scientific Reports, 2020).
Values joined by “and” are separate entries in the source; they are usually repeats but may differ in a detail not shown here. Identical values can stand only once. Like-named read-outs stand apart in the source and are kept apart here.

What was measured:
[1] = Octanol-water partition coefficient (logD) at pH 7.4, modified shake flask method; type: physicochemical; conditions: pH 7.4, 4 replicates
Description: The octanol-water partition coefficient (logD) at pH 7.4 was determined using a modified version of the shake flask method. Briefly, PBS (900 µL), 1-octanol (900 µL) and a 10 mg/mL aqueous solution of each compound (2 µL) were added to a 2 mL HPLC vial. The compounds were partitioned between the layers via vortexing and centrifuged at 1,000 g for 1 min to allow for phase separation. A portion (10 µL) was taken from each layer (autoinjector was set up to draw volume at two different heights) and analyzed by HPLC. The relative concentration in each phase was determined by integrating the area under each peak and comparing the ratio of the areas from the octanol and aqueous layers. A calibration curve was performed to ensure that the concentrations detected were within the linear range of the detector. This procedure was repeated 4 times for each compound.

[2] = pKa determination by acid titration; type: physicochemical; conditions: acid titration in water, Gran plot, 4 replicates
Description: The pKa of each compound was measured by acid titration. […] This procedure was repeated 4 times for each compound.

Shaker K+ channel = target: T1, Shaker K+ channel (Drosophila melanogaster, UniProt P08510, DEL6-46); assay: cell-based; type: cell-based, D. melanogaster; conditions: for δ (fractional distance through the membrane electrical field): Woodhull fit of IC50 vs voltage curves
T1 construct: expressed in transfected cells; host or cells: Xenopus laevis oocytes injected with in vitro transcribed cRNA (cDNA clone from the Bezanilla laboratory)
Description: K^+ currents were measured in Xenopus oocytes expressing the commonly studied voltage-gated K^+ channel Shaker from D. melanogaster. In order to determine the relative blocking capacity, each drug was applied to the same oocyte at increasing concentrations ranging from 1 to 10,000 μM. Then, the relative current was determined as the ratio between the maximal amplitude of the K^+ current in the absence and in the presence of each drug. […] The Hill equation (Eq. 1) was fitted to the dose-response curves and used to calculate the IC50 for each drug at pH 7.4.
A sample of cDNA clone encoding for Shaker voltage-gated K^+ channel from D. melanogaster with inactivation removed[51] was generously provided by the laboratory of Prof. Francisco Bezanilla at The University of Chicago. The DNA was amplified, linearized with Not I enzyme (New England Biolabs, Inc., Ipswich, MA, USA) and transcribed in vitro using the T7 promoter mMESSAGE cRNA kit (Ambion, Austin, Tex., USA).
Shaker channel was heterologously expressed in Xenopus laevis oocytes. Only mature Xenopus laevis frogs (Aquanimals SA de CV, Queretaro, Mexico) were used as oocytes suppliers. A volume of 1−3 mL from the ovary lobes was extracted via survival surgery under anesthesia. All methods involving live animals were performed in accordance with relevant guidelines and regulations and with the approval of the Comité Institucional del Cuidado y Uso de Animales en el Laboratorio (CICUAL-CUCEI-UDG). Subsequently, oocytes were isolated with the treatment of collagenase type II (Worthington Biochemical Corp., NJ, USA) under mechanical agitation. After the isolation with collagenase, each oocyte was injected with 15–25 ng of RNA encoding for the Shaker ion channel and incubated for 8–12 h at 17 °C in a Standard Oocytes Saline (SOS) solution containing (in mM): 100 NaCl, 1 MgCl2, 10 HEPES, 2 KCl and 1.8 CaCl2 with 50 μg/mL gentamycin at pH 7.5.
All chemical compounds for this study were acquired from Sigma-Aldrich (Sigma-Aldrich Co., St. Louis, MO, USA) and Chem-Impex International (Chem-Impex International, Inc. Wood Dael, IL, USA) unless otherwise indicated. Electrophysiology measurements were conducted using the methodology of cut-open oocyte voltage clamp (COVC)[52]. For COVC procedures, the internal recording solution contained (in mM): 120 KOH, 2 EGTA, and 20 HEPES. The external recording solution was composed (in mM) by: 12 KOH, 2 Ca(OH)2, 105 NMDG (N-methyl-D-glucamine)-methylsufonate (MES), and 20 mM HEPES. For measurements carried out at pH of 6.8 and 7.4, the pH of both solutions was adjusted with MES. For measurements carried out at pH = 9.1, HEPES was replaced by 2-(cyclohexylamino)ethanesulfonic acid (CHES).
K^+ currents were recorded in the same oocyte, first in absence (IK) and then in presence of each drug (II). IK was elicited by depolarizing the oocyte membrane with a voltage protocol that consisted in steps of 50 ms from −100 to 50 mV in increments of 10 mV. […] The integrity and stability of each oocyte were continuously monitored throughout the experiment.
Ionic currents were amplified and digitized with the Oocyte Clamp Amplifier CA-1A (Dagan Corporation, Minneapolis, MN, USA) and the USB-1604-HS-2AO Multifunction Card (Measurement Computing, Norton, MA, USA), respectively, and controlled with the GpatchMC64 program (Department of Anesthesiology, UCLA, Los Angeles, CA, USA) via a PC. Data were sampled at 100 kHz and filtered at 10 kHz. All the experiments were performed at room temperature (21–23 °C).
Ion currents recordings were analyzed with Analysis (Department of Anesthesiology, UCLA, Los Angeles, CA, USA) and OriginPro 8 (OriginLab Corporation, Northampton, MA, USA.) programs.
Mean values of data ± standard deviation (s.d.) are given or plotted and the number of experiments is denoted by n. The 95% of confidence interval (IC95) is denoted as [Upper limit-Lower limit]; where Upper limit = 10^(logIC50+s.d) and Lower limit = 10^(logIC50−s.d) .

[3] = cited from earlier work
[4] = 1-octanol/PBS, pH 7.4, octanol/water (PBS), read-out: logD
[5] = 0 mV, pH 6.8, Hill fit, read-out: IC50
[6] = 0 mV, pH 7.4, Hill fit, read-out: IC50
[7] = 0 mV, pH 9.1, Hill fit, read-out: IC50
[8] = 40 mV, pH 7.4, Hill equation fit, read-out: IC50
[9] = IC50, 40 mV, pH 7.4, Hill equation fit
[10] = IC50 at V = 0 mV (Woodhull parameter), fit of IC50 vs voltage curves (10 to 50 mV) with Woodhull model, mean ± SD
[11] = IC50 increase with voltage (from lowest to highest voltage), over the voltage values studied, Fig. 4 shows 10 to 50 mV
[12] = fit of IC50 vs voltage curves (10 to 50 mV) with Woodhull model, mean ± SD, read-out: IC50 at V = 0 mV (Woodhull parameter)
[13] = over the voltage values studied, Fig. 4 shows 10 to 50 mV, read-out: IC50 increase with voltage (from lowest to highest voltage)

T1 sequence (P08510 other isoform, or with tags, fused parts or gaps DEL6-46): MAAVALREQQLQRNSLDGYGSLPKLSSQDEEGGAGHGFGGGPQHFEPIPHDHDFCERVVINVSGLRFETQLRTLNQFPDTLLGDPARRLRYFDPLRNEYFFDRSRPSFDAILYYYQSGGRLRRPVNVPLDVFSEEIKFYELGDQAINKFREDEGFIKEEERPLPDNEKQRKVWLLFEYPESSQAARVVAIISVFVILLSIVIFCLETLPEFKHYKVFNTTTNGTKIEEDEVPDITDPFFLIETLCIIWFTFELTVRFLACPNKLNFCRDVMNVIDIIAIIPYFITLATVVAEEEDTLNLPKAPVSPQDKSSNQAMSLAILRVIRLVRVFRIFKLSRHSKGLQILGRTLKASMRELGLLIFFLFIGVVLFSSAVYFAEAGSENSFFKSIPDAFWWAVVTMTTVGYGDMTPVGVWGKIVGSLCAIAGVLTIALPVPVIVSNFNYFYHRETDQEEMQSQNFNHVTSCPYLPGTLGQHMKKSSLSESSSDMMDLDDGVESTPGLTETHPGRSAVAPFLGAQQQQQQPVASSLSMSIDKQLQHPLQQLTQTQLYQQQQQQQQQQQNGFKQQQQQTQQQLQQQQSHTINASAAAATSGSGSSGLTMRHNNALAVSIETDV

| SMILES | logD [1, 4] | logD ([1]; octanol/water (PBS)) | pKa [2] | pKa ([2]; water, read-out: pKa) | IC50 (Shaker K+ channel; [5]) | IC50 (Shaker K+ channel; [6]) | IC50 (Shaker K+ channel; [7]) | IC50 (Shaker K+ channel; [8]) | blocking of the channel (Shaker K+ channel; at 10 mM, pH 7.4, 40 mV) | IC50 (Shaker K+ channel; IC50, 0 mV, pH 6.8, Hill fit) | IC50 (Shaker K+ channel; IC50, 0 mV, pH 7.4, Hill fit) | IC50 (Shaker K+ channel; IC50, 0 mV, pH 9.1, Hill fit) | IC50 (Shaker K+ channel; [9]) | IC50 (Shaker K+ channel; [10]) | IC50 (Shaker K+ channel; [11]) | δ (fractional distance through the membrane electrical field) (Shaker K+ channel) | pKa [3] | IC50 (Shaker K+ channel; [12]) | IC50 (Shaker K+ channel; [13]) | potency relative to 4AP (Shaker K+ channel; pH 7.4, 40 mV) |
| --- | --- | --- | --- | --- | --- | --- | --- | --- | --- | --- | --- | --- | --- | --- | --- | --- | --- | --- | --- | --- |
| Nc1ccnc(C(F)(F)F)c1 [2CF34AP, 2-trifluoromethyl-4-aminopyridine] | 1.48 | 0.906 ± 0.006 | 7.0 ± 0.4 | < 8 | 10400 µM | 11900 µM | 18200 µM | 12800 µM | ~ 50% | – | – | – | – | – | – | – | – | – | – | – |
| Nc1ccncc1C(F)(F)F [3CF34AP, 3-trifluoromethyl-4-aminopyridine] | 0.91 | 1.484 ± 0.009 | 7.17 ± 0.04 | < 8 | – | – | – | – | – | 249 µM | 690 µM | 2190 µM | 1060 µM | 516 ± 51 µM | 690 to 1150 µM | 0.46 ± 0.10 | – | – | – | – |
| Nc1ccncc1F [3F4AP, 3-fluoro-4-aminopyridine, reference compound] | 0.41 | 0.414 ± 0.002 | 7.65 ± 0.15 | < 8 | 82 µM | 160 µM | 185 µM | 244 µM | – | – | – | – | – | – | – | 0.46 ± 0.10 | 7.6 | 122 ± 4 µM | 160 to 304 µM | comparable to 4AP |
| Cc1cnccc1N [3Me4AP, 3-methyl-4-aminopyridine] | – | −1.23 and −1.232 ± 0.008 | 9.82 ± 0.06 | > 9 | – | – | – | – | – | 66 µM | 39 µM | 15 µM | 40 µM | 21 ± 1 µM | 37 to 50 µM | 0.43 ± 0.10 | – | – | – | – |
| COc1cnccc1N [3MeO4AP, 3-methoxy-4-aminopyridine] | -0.76 ± 0.03 | – | 9.18 ± 0.02 | > 9 | 357 µM | 355 µM | 492 µM | 807 µM | – | – | – | – | – | – | – | 0.56 ± 0.02 | – | 329 ± 17 µM | 310 to 992 µM | – |
| Nc1ccncc1 [4AP, 4-aminopyridine, reference compound] | – | −1.48 and −1.478 ± 0.014 | 9.58 ± 0.07 | > 9 | – | – | – | – | – | – | – | – | – | – | – | 0.41 ± 0.08 | – | – | – | – |
